Results taken from ChEMBL document CHEMBL1122200, “Novel opiates and antagonists. 5. 7-Carbethoxy-N-(cycloalkylmethyl)-3-hydroxymorphinan-6-ones and -isomorphinan-6-ones” (1982).

Key:
Mus musculus = assay: Analgesic activity by mouse writhing test after subcutaneous injection.; format: functional
Rattus norvegicus = assay: Narcotic antagonist activity was measured by rat tail flick procedure after the drug was injected intraperitoneally; format: functional
[1] = Mus musculus, sc, read-out: ED50

| Compound | ED50 (Mus musculus; [1]) [mg/kg] | AD50 (Rattus norvegicus) [mg/kg] | ED50 (Mus musculus) [mg/kg] |
| --- | --- | --- | --- |
| CCOC(=O)[C@@H]1CC2C3Cc4ccc(OC)cc4C2(CCN3CC2CCC2)CC1=O (some centres not stated) | > 10 | >3 | – |
| CC(C)(O)[C@@H]1CC2C3Cc4ccc(O)cc4C2(CCN3CC2CC2)C[C@@H]1O (some centres not stated) | 6.9 | >10 | – |
| CCOC(=O)[C@H]1CC2C3Cc4ccc(OC)cc4C2(CCN3C)CC1=O (some centres not stated) | > 10 | – | – |
| CCOC(=O)[C@H]1CC2C3Cc4ccc(OC)cc4C2(CCN3CC2CC2)CC1=O (some centres not stated) | > 10 | >10 | – |
| CCOC(=O)[C@@H]1CC2C3Cc4ccc(O)cc4C2(CCN3CC2CC2)CC1=O (some centres not stated) | 4.9 | – | – |
| CCOC(=O)[C@@H]1CC2C3Cc4ccc(O)cc4C2(CCN3CC2CCC2)CC1=O (some centres not stated) | – | >10 | – |
| CCOC(=O)[C@H]1CC2C3Cc4ccc(O)cc4C2(CCN3C)CC1=O (some centres not stated) | 0.6 | – | – |
| CN1CC[C@]23c4c5ccc(O)c4O[C@H]2[C@@H](O)C=C[C@H]3[C@H]1C5.CN1CC[C@]23c4c5ccc(O)c4O[C@H]2[C@@H](O)C=C[C@H]3[C@H]1C5.O=S(=O)(O)O | 0.8 | – | – |
| CN1CCC23CC(=O)CC[C@H]2C1Cc1ccc(O)cc13 (some centres not stated) | 0.15 | – | – |
| CN1CCC23CC(=O)CC[C@@H]2C1Cc1ccc(O)cc13 (some centres not stated) | 0.23 | – | – |
| CCOC(=O)[C@@H]1CC2C3Cc4ccc(OC)cc4C2(CCN3CC2CC2)CC1=O (some centres not stated) | > 10 | >3 | – |
| CCOC(=O)[C@@H]1CC2C3Cc4ccc(O)cc4C2(CCN3C)CC1=O (some centres not stated) | 0.72 | – | – |
| CCOC(=O)[C@@H]1CC2C3Cc4ccc(OC)cc4C2(CCN3C)CC1=O (some centres not stated) | 4.6 | – | – |
| COc1ccc2c(c1)C13CCN(C)C(C2)[C@@H]1CCC(=O)C3 (some centres not stated) | 0.49 | – | – |
| CC(C)(O)[C@H]1CC2C3Cc4ccc(O)cc4C2(CCN3CC2CC2)C[C@H]1O (some centres not stated) | > 10 | >10 | – |
| COc1ccc2c(c1)C13CCN(C)C(C2)[C@H]1CCC(=O)C3 (some centres not stated) | 1.58 | – | – |
| O=C1CCC2C3Cc4ccc(O)cc4C2(CCN3CC2CCC2)C1 (cis isomer) | 0.017 | >10 | – |
| COc1ccc2c(c1)C13CCN(CC4CC4)C(C2)C1CCC(=O)C3 (stereo in doubt; 5Cc) | – | >3 | 0.24 |
| COc1ccc2c(c1)C13CCN(CC4CCC4)C(C2)C1CCC(=O)C3 (stereo in doubt; 5Cd) | – | >10 | 0.22 |
| O=C1CCC2C3Cc4ccc(O)cc4C2(CCN3CC2CC2)C1 (stereo in doubt; 9Ca) | – | 2.3 | 1.02 |
| COc1ccc2c(c1)C13CCN(CC4CC4)C(C2)C1CCC(=O)C3 (trans isomer) | – | 1.3 | >10 |
| COc1ccc2c(c1)C13CCN(CC4CCC4)C(C2)C1CCC(=O)C3 (trans isomer) | – | – | 6.9 |
| O=C1CCC2C3Cc4ccc(O)cc4C2(CCN3CC2CC2)C1 (trans isomer) | – | 0.78 | >10 |
| CC(C)=CCN1CC[C@]2(C)c3cc(O)ccc3C[C@H]1[C@H]2C [(+)-PENTAZOCINE] | 3.7 | 10.4 | – |
| C=CCN1CC[C@]23c4c5ccc(O)c4O[C@H]2[C@@H](O)C=C[C@H]3[C@H]1C5 [NALORPHINE] | – | 0.86 | – |
